Reference: PubChem BioAssay (NCI)
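Values below derive from 48-hour exposures of cells grown in 96-well plates, with endpoints linearly interpolated between the two concentrations bracketing the appropriate inhibition level. Abbreviation: GI50, concentration required for 50% inhibition of growth. TGI marks complete inhibition of growth.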

Assays:
Experiment in all cases: NCI-60 cell line screen, 48 h
[1] = test system: MALME-3M melanoma
[2] = test system: SK-MEL-2 melanoma
[3] = test system: RPMI-8226 leukemia
[4] = test system: SF-295 CNS
[5] = test system: RXF 393 renal
[6] = test system: KM12 colon
[7] = test system: HT29 colon
[8] = test system: SNB-19 CNS
[9] = test system: SN12C renal
[10] = test system: HL-60(TB) leukemia

Structure (SMILES) | GI50 [1] [µM] | TGI [1] [µM] | GI50 [2] [µM] | TGI [2] [µM] | GI50 [3] [µM] | TGI [3] [µM] | GI50 [4] [µM] | TGI [4] [µM] | GI50 [5] [µM] | TGI [5] [µM] | GI50 [6] [µM] | TGI [6] [µM] | GI50 [7] [µM] | TGI [7] [µM] | GI50 [8] [µM] | TGI [8] [µM] | GI50 [9] [µM] | TGI [9] [µM] | GI50 [10] [µM] | TGI [10] [µM]
C=CCN(/C=C1/C(=O)O[C@H](COC)[C@@]2(C)C1=C(O)C(=O)C1=C2[C@H](OC(C)=O)C[C@]2(C)C(=O)CC[C@@H]12)CC=C | 0.784 | > 10 | 1.22 | > 6.23 | 2 | > 10 | 0.573 | > 10 | 0.112 | 1.56 | 2.52 | > 10 | 0.422 | > 10 | 3.45 | > 10 | 1.11 | > 10 | 0.286 | > 10
CC1CC2CC(=O)CC3(C1)C2CCCN3CCCO (stereo not given) | – | > 100 | – | > 100 | – | > 100 | – | > 100 | – | > 100 | – | > 100 | – | > 100 | – | > 100 | – | > 100 | – | > 100
CCn1c(C(=O)N(C2CC2)C2CC2)cc2c3c(ncn3C)c(Nc3cc(C)n(C)n3)nc21 | > 100 | > 100 | > 100 | > 100 | > 100 | > 100 | > 100 | > 100 | 2.99 | 23.9 | 0.506 | > 100 | > 100 | > 100 | > 100 | > 100 | 98.3 | > 100 | > 100 | > 100
CN(C)c1ccc([O-])cc1.CN(C)c1ccc([O-])cc1.CN(C)c1ccc([O-])cc1.CN(C)c1ccc([O-])cc1.[Ti+4] | > 100 | > 100 | > 100 | > 100 | 30.9 | > 100 | > 100 | > 100 | 59 | > 100 | 55 | > 100 | > 100 | > 100 | > 100 | > 100 | > 100 | > 100 | 27.5 | > 100
COC(=O)C1C(O)CC(c2ccccn2)N(Cc2ccccc2)C1c1ccccn1 (stereo not given) | – | > 100 | – | > 100 | – | > 100 | – | > 100 | – | > 100 | – | > 100 | – | > 100 | – | > 100 | – | > 100 | – | 65.1
O=Nc1c(-c2c(O)[nH]c3ccc([N+](=O)[O-])cc23)[nH]c2ccc(O)cc12 | 0.781 | 45.3 | 0.293 | 0.757 | 0.665 | 14.7 | 0.62 | > 100 | 0.18 | 0.475 | 0.298 | 1.28 | 12.4 | > 100 | 0.465 | > 100 | 0.366 | > 100 | 0.312 | 1.04
C[C@H](NC(=O)[C@@H]1CSSC[C@@H](NC(=O)c2nc3ccccc3cc2O)C(=O)NCC(=O)N1C)c1ccccc1 | 6.08 | 14 | 2.55 | 10.1 | 5.67 | 21.5 | 7.44 | 16.3 | 1.31 | 3.06 | 0.629 | 8.56 | 1.13 | 3.35 | 7.24 | 19.4 | 5.62 | 14.1 | 1.2 | 4.78
COc1ccc(-c2nc3sc(-c4ccc(Cl)cc4)cn3n2)cc1 | 2.71 | > 50 | > 50 | > 50 | 3.67 | > 50 | 2.81 | 31.8 | 6 | 39.7 | 12.2 | > 50 | 2.96 | > 50 | 2.47 | > 50 | 1.84 | > 50 | > 50 | > 50
CN1CCN(c2ccc(NC(=O)c3nc4ccc5[nH]ncc5c4c4c3CCCC4)cc2C(F)(F)F)CC1 | 0.76 | 1.64 | 7.33 | 19.1 | 0.966 | 2.3 | 1.39 | 4.16 | 0.798 | 1.55 | 1.47 | 5.27 | 1.02 | 3.06 | 1.39 | 4.58 | 0.895 | 1.65 | 0.969 | 2.1
Cc1ccc(/C(=N\N=C(N)N)c2ccccc2)cc1 | 0.391 | 17.3 | 5.02 | 28.7 | 0.692 | 42.7 | 0.306 | 3.15 | 0.296 | 2.9 | 0.367 | 5.05 | 0.344 | 5.73 | 0.455 | 13.1 | 0.587 | 13.4 | 0.318 | > 36.2
CC(C)CNCC(O)COc1ccc(C(C)(C)c2ccc(OCC(O)CNCC(C)C)cc2)cc1 (stereo not given) | 1.71 | 3.32 | 1.81 | 3.57 | 1.88 | 4.42 | 2.36 | 6.68 | 1.66 | 3.67 | 2.38 | 7.41 | 1.62 | 3.26 | 3.15 | 10.9 | 4.82 | 18.3 | 1.86 | 3.76
